Experimental data from patent US10350271B2, “Lipidated peptides for lowering blood glucose” (USTAV ORGANICKE CHEMIE A BIOCHEMIE AKADEMIE VED CR, V.V.I., priority 2014, dated 2019).

How the values were obtained:
[1] = target: T1, human PrRP receptor GPR10 (Homo sapiens, UniProt P49683); assay: Competitive binding in CHO cells transfected with human GPR10 (human 125I-PrRP31)
T1 construct: host or cells: CHO cells
T1 sequence (P49683 1-370): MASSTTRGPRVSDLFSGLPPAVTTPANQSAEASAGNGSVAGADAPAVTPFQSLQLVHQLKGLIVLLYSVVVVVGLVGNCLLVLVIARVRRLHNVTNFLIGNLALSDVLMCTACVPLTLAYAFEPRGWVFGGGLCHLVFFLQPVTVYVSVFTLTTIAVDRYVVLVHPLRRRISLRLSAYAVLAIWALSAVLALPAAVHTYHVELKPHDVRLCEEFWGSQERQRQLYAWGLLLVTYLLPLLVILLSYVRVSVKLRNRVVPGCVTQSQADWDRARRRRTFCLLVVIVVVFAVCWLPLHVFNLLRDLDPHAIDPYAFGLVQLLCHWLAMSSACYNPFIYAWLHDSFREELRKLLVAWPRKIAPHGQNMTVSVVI
Procedure, shortened: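 Values from one-site nonlinear regression of displacement curves: analogs (final 10^-11 to 10^-4 mol·l^-1) competed with 125I-PrRP31 (final 5×10^-11 mol·l^-1) on adherent human GPR10 CHO cells. Binding ran 1 h at room temperature, pH 7.4 buffer with NaCl, MgCl2, CaCl2, glucose, BSA; cell-bound radioactivity counted after NaOH lysis.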

C57BL/6 mice [2] = assay: Food intake in fasted mice after SC injection; type: in vivo; conditions: 5 mg/kg SC, 45 min after injection
Procedure, shortened: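 Saline, PrRP or a lipidated analog was injected SC (1-10 mg/kg) after a 17 h fast with free water, animals housed singly.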

Wistar rats [3] = assay: Food intake in fasted rats after SC injection; type: in vivo; conditions: overnight fasted rats, compared to controls given vehicle
Method: NMRI mice, C57BL/6 mice, and Wistar rats (AnLab, Prague, Czech Republic) were housed in a temperature of 23° C. and a daily cycle of 12 h light and dark (light from 6:00). They were given ad libitum water and a standard chow diet that contained 25, 9 and 66% of calories of protein, fat and carbohydrate respectively. Energy content of the feed was 3.4 kcal/g (St-1, Mlýn Kocanda, Czech Republic). Db/db mice and their controls (C57BL/6 background) were obtained from Taconic (Denmark), housed under the same conditions as described above, and fed by Altromin (Taconic, Denmark). ZDF-Lepr^fa/Crl, diabetic fa/fa male rats were obtained from Charles River (France), housed under same conditions as described above, and fed with a Purina 5008 diet (IPS Product Supplies Limited, UK). All experiments followed the ethical guidelines for animal experiments and the law of the Czech Republic Nr. 246/1992.
In experiments with C57BL/6 mice or Wistar rats, food intake was measured with overnight fasted animals in individual cages. Food was withdrawn 17 hours prior to injection of lipidated analog of prolactin releasing peptide (PrRP); free access to water was maintained. The administration of either saline, PrRP, or lipidated analogs was performed by SC injection at doses of 1-10 mg/kg (which corresponded to a volume of 0.2 ml/mouse and 0.1 ml/100 g weight of rat). Fifteen minutes after the lipidated analog of prolactin releasing peptide (PrRP) administration, the mice were given pre-weighed food. The food was then weighed every 30 minutes for 5-10 hours. The administration of each dose was performed at least twice, and each group of mice consisted of at least 6 mice.

C57BL/6 mice [4] = assay: IPGTT after acute administration in lean mice; type: in vivo; conditions: lean C57BL/6 mice, 5 mg/kg SC, vs saline
Method: IPGTT was performed in overnight fasted male C57BL/6 mice.
Intraperitoneal glucose tolerance test (IPGTT) was performed in overnight fasted male C57BL/6 mice (AnLab, Praha, Czech Republic) at age of 12 weeks. […] 15 min later, 2 g/kg glucose solution was administered IP. Blood glucose was then measured at 15, 30, 60, 120 min from glucose injection using a glucometer (Glucocard, Arkray, Kyoto, Japan).
IPGTT was performed in overnight fasted male C57BL/6 mice, Blood glucose levels were measured at the beginning and after subcutaneous (SC—beneath the skin) administration of palm-PrRP31 (5 mg/kg SC) or saline (n=7) at time 30, 60, 90 and 120 min post injection. […] Regarding the error bars in the graphs *P<0.05, **P<0.01. IPGTT glucose levels were lower in mice given analog 43 instead of saline, particularly early in the experiment. Total area under the curve was also clearly lower in analog 43 mice.

[5] = system: obese diabetic monosodium-glutamate (MSG) mice; assay: IPGTT after 10 days administration to obese diabetic MSG mice; type: in vivo; conditions: 5 mg/kg SC twice a day for 10 days, vs saline
Method: Mice were subjected to a 10-day food intake experiment. […] After 10 days of treatment, mice were fasted overnight and IPGTT was performed. After initial blood glucose measurement, 2 g/kg glucose solution was administered intraperitoneally (IP).
Obese mice were created using MSG. L-glutamic acid sodium salt hydrate (Sigma, St. Louis, USA) was subcutaneously (SC) administered to newborn male mice, at a dose of 4 mg/g body weight, daily from postnatal days 2 to 8 to induce obesity. The MSG treated mice used for experiments were 24 weeks old. Age related mice were used as controls. Obese and control mice were placed into separate cages with free access to food and water. The following week, mice were subjected to a 10-day food intake experiment. […] Consumption of the St-1 diet and the body weight of the mice were simultaneously followed. After 10 days of treatment, mice were fasted overnight and IPGTT was performed. After initial blood glucose measurement, 2 g/kg glucose solution was administered IP.
Blood glucose was then measured at 15, 30, 60, 120 and 180 min post injection as described above.

Wistar rats [6] = assay: IPGTT after acute administration in lean rats; type: in vivo; conditions: fasted male Wistar rats, 5 mg/kg, vs saline
Method: IPGTT was performed in overnight fasted male Wistar rats.
IPGTT was performed in overnight fasted male Wistar rats (Antab, Praha, Czech Republic) at age of 14 weeks. […] 15 min later, 2 g/kg glucose solution was administered IP. Blood glucose was then measured at 15, 30, 60, and 120 min from glucose injection.
FIG. 4 illustrates a plot of glucose levels after acute administration of palm-PrRP31 in rats. IPGTT was performed in overnight fasted male Wistar rats.

CCCCCCCCCCCCCCCC(=O)N[C@@H](CO)C(=O)N[C@@H](CCCNC(=N)N)C(=O)N[C@H](C(=O)N[C@@H](Cc1c[nH]cn1)C(=O)N[C@@H](CCCNC(=N)N)C(=O)N[C@@H](Cc1c[nH]cn1)C(=O)N[C@@H](CO)C(=O)N[C@@H](CCSC)C(=O)N[C@@H](CCC(=O)O)C(=O)N[C@H](C(=O)N[C@@H](CCCNC(=N)N)C(=O)N[C@H](C(=O)N1CCC[C@H]1C(=O)N[C@@H](CC(=O)O)C(=O)N[C@H](C(=O)N[C@@H](CC(N)=O)C(=O)N1CCC[C@H]1C(=O)N[C@@H](C)C(=O)N[C@@H](Cc1c[nH]c2ccccc12)C(=O)N[C@@H](Cc1ccc(O)cc1)C(=O)N[C@@H](C)C(=O)N[C@@H](CO)C(=O)N[C@@H](CCCNC(=N)N)C(=O)NCC(=O)N[C@H](C(=O)N[C@@H](CCCNC(=N)N)C(=O)N1CCC[C@H]1C(=O)N[C@H](C(=O)NCC(=O)N[C@@H](CCCNC(=N)N)C(=O)N[C@@H](Cc1ccccc1)C(N)=O)C(C)C)[C@@H](C)CC)[C@@H](C)CC)[C@@H](C)O)[C@@H](C)CC)[C@@H](C)O [Analog 43]
% of PrRP31, GPR10 human receptor transfected in CHO cells ([1]; affinity relative to PrRP31): 90%
Displacement of human 125I-PrRP binding ([1]; human GPR10 receptor): nmol·l^−1 range
Food intake in mice % of saline-treated group (C57BL/6 mice [2]): 30%
Food intake in rats (Wistar rats [3]): significantly reduced
IPGTT glucose levels (C57BL/6 mice [4]): lower
IPGTT total area under the curve (C57BL/6 mice [4]): clearly lower
IPGTT area under the curve through 180 min [5]: substantially lower
IPGTT blood glucose levels [5]: lower
Large spike in blood glucose in IPGTT (Wistar rats [6]): did not
